The text below walks through data of PMC5564600 (Oncotarget, 2017).

Read-outs that look alike come from different tables or passages of the source.

What all share (experiment): biochemical
Type in all cases: binding

Assay [1] has as its target T1, panel of 442 kinases (Homo sapiens, UniProt Q13153).
T1 construct: purchased Ambit Biosciences (scanMAXX KINOMEscan)
As to conditions: kinase PAK1; for remaining activity at 1 µM: read-out: % of control at 1 µM.

The target in assay [2] is T2, panel of 442 kinases (Homo sapiens, UniProt P0C264).
T2 construct: purchased Ambit Biosciences (scanMAXX KINOMEscan)
T2 sequence (P0C264 1-359): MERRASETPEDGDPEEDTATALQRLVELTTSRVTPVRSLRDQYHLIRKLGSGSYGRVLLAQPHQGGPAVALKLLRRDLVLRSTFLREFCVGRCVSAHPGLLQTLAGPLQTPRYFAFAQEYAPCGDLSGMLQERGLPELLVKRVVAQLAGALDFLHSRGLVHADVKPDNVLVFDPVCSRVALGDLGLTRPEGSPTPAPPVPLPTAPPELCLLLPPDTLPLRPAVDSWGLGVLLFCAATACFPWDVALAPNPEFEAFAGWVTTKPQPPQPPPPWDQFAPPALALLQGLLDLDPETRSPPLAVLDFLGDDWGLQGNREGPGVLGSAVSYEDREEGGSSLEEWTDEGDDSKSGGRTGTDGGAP
Conditions: kinase SgK110; for remaining activity at 1 µM: read-out: SgK110 (% of control at 1 µM).

The target of assay [3] is T3, panel of 442 kinases (Homo sapiens, UniProt Q96SB4).
T3 construct: purchased Ambit Biosciences (scanMAXX KINOMEscan)
T3 sequence (Q96SB4 whole entry): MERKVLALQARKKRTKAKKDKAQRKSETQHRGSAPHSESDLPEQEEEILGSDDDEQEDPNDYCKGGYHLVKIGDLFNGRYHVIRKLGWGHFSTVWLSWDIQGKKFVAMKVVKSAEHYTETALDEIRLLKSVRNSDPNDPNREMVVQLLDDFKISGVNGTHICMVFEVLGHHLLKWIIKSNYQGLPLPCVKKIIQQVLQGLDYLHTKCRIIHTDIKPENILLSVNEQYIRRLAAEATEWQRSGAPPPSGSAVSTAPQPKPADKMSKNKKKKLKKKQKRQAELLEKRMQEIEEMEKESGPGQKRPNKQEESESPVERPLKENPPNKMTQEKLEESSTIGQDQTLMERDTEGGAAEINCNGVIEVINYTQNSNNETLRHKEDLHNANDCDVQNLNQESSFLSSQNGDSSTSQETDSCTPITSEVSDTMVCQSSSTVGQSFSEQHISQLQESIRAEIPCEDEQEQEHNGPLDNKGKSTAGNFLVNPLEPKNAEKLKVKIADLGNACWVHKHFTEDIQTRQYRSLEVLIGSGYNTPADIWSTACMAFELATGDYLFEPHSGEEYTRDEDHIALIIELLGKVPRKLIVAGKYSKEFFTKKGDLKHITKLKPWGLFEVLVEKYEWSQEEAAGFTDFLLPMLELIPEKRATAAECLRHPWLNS
Conditions: kinase SRPK1; for remaining activity at 1 µM: read-out: SRPK1 (% of control at 1 µM).

Assay [4] deals with T4, panel of 442 kinases (Homo sapiens, UniProt P11802).
T4 construct: purchased Ambit Biosciences (scanMAXX KINOMEscan)
T4 sequence (P11802 whole entry): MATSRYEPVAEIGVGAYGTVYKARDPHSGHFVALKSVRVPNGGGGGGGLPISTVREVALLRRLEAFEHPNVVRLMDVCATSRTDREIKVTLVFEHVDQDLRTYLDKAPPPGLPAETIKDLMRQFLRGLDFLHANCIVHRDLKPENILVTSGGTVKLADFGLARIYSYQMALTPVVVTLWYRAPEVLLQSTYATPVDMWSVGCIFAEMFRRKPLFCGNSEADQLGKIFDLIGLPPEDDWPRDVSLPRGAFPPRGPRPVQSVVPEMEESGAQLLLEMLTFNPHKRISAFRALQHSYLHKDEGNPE
Conditions: for remaining activity at 1 µM: read-out: % of control at 1 µM; for remaining activity at 10 µM: read-out: % of control at 10 µM.

The target of assay [5] is T5, panel of 442 kinases (Homo sapiens, UniProt Q92918).
T5 construct: purchased Ambit Biosciences (scanMAXX KINOMEscan)
T5 sequence (Q92918 whole entry): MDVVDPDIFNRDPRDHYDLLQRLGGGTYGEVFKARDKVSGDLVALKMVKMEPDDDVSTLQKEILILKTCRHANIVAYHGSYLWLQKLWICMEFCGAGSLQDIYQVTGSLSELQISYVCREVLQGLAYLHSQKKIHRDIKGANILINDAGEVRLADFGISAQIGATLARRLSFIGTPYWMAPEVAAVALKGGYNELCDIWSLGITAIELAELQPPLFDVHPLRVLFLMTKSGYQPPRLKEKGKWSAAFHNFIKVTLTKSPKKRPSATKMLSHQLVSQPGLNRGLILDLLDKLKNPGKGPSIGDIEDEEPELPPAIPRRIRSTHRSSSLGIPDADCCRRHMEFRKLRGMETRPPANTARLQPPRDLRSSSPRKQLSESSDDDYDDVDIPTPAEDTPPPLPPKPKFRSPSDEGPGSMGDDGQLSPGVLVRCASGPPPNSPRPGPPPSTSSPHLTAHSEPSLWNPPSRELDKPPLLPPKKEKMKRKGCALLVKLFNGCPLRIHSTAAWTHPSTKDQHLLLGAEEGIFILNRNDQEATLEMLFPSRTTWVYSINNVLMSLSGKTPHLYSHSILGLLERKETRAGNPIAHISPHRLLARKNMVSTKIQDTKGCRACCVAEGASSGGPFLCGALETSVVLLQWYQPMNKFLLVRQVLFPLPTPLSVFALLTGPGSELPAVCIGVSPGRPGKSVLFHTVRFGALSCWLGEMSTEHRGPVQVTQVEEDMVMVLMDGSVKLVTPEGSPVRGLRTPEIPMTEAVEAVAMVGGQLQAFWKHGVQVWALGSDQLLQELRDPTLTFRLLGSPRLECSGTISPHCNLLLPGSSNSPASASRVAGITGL
Conditions: kinase HPK1; for remaining activity at 1 µM: read-out: % of control at 1 µM.

Assay [6] addresses T6, panel of 442 kinases (Homo sapiens, UniProt Q9UL54).
T6 construct: purchased Ambit Biosciences (scanMAXX KINOMEscan)
T6 sequence (Q9UL54 1-1235): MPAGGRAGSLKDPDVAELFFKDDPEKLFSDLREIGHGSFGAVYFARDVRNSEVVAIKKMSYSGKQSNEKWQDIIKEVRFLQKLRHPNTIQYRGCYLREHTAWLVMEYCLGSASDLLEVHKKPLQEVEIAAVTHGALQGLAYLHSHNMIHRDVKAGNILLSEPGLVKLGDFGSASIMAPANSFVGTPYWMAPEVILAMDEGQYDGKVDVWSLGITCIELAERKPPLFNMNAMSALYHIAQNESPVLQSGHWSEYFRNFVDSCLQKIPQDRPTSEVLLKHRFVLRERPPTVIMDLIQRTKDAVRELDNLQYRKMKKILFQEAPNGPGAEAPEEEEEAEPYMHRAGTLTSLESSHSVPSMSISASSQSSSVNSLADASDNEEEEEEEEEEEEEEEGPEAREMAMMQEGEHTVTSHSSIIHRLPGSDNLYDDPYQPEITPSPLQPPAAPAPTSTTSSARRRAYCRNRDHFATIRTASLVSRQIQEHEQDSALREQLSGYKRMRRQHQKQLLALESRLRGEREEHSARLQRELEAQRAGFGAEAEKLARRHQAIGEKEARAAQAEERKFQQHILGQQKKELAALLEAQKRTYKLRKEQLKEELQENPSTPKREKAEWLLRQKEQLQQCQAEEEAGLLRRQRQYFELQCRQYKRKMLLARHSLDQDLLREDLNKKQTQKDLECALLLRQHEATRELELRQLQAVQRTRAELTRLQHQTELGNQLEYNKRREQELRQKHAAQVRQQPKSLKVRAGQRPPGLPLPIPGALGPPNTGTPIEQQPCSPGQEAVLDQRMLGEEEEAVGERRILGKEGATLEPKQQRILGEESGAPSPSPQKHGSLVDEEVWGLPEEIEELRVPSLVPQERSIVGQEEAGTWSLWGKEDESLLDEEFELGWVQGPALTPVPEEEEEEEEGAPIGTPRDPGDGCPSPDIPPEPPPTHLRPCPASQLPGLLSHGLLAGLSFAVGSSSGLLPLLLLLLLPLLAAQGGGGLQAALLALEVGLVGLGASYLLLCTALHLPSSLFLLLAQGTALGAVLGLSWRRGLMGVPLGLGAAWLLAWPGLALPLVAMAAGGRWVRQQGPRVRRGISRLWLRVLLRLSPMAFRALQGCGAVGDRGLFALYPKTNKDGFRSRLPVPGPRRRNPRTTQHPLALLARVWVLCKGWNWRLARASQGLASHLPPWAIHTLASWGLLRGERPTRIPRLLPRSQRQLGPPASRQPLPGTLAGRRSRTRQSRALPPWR
Conditions: kinase TAOK2; for remaining activity at 1 µM: read-out: TAOK2 (% of control at 1 µM).

Assay [7] concerns the target T7, panel of 442 kinases (Homo sapiens, UniProt Q9BUB5).
T7 construct: purchased Ambit Biosciences (scanMAXX KINOMEscan)
As to conditions: kinase MKNK1; for remaining activity at 1 µM: read-out: % of control at 1 µM.

Assay [8] addresses T8, panel of 442 kinases (Homo sapiens, UniProt Q86Y07).
T8 construct: purchased Ambit Biosciences (scanMAXX KINOMEscan)
As to conditions: kinase VRK2; for remaining activity at 1 µM: read-out: VRK2 (% of control at 1 µM).

Assay [9] concerns the target T9, panel of 442 kinases (Homo sapiens, UniProt Q9P289).
T9 construct: purchased Ambit Biosciences (scanMAXX KINOMEscan)
Conditions: kinase MST4; for remaining activity at 1 µM: read-out: % of control at 1 µM.

In assay [10] the target is T10, panel of 442 kinases (Homo sapiens, UniProt Q00526).
T10 construct: purchased Ambit Biosciences (scanMAXX KINOMEscan)
T10 sequence (Q00526 whole entry): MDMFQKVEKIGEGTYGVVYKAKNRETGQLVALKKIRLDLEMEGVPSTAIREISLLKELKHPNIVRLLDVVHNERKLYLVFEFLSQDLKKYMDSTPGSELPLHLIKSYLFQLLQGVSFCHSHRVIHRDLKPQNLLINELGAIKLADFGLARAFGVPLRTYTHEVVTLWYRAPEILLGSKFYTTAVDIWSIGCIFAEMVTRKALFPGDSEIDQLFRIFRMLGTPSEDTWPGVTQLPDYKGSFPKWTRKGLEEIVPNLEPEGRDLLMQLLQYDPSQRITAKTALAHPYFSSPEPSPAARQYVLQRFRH
Conditions: CDK3; for remaining activity at 1 µM: read-out: % of control at 1 µM.

Assay [11] addresses T11, panel of 442 kinases (Homo sapiens, UniProt Q9BXA7).
T11 construct: purchased Ambit Biosciences (scanMAXX KINOMEscan)
T11 sequence (Q9BXA7 1-367): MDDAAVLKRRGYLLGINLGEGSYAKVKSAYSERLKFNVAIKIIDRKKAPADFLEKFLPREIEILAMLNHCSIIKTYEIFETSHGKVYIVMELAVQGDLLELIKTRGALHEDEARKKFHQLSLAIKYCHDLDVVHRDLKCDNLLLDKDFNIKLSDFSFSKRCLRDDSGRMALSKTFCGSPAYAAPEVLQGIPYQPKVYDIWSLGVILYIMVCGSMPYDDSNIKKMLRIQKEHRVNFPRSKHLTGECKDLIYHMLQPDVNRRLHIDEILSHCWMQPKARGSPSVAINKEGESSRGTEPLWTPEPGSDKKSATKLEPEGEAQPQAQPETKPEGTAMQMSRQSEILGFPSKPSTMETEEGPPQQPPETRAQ
Conditions: kinase TSSK1B; for remaining activity at 1 µM: read-out: TSSK1B (% of control at 1 µM).

[12] abbreviates: 10 µM, read-out: % of control at 10 µM.

T7 sequence (Q9BUB5 whole entry): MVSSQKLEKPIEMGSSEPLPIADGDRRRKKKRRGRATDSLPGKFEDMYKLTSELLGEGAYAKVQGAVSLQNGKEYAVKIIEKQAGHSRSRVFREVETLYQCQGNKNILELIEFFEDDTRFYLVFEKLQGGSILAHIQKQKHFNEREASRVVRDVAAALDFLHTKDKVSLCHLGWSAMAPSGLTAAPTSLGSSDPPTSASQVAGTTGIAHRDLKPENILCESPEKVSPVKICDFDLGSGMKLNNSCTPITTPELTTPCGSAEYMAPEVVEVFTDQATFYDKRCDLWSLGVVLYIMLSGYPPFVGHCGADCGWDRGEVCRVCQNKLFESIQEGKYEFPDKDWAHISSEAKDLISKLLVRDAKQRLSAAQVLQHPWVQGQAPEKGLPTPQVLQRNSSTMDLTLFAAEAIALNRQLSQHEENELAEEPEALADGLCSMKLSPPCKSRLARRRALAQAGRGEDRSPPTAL
T9 sequence (Q9P289 whole entry): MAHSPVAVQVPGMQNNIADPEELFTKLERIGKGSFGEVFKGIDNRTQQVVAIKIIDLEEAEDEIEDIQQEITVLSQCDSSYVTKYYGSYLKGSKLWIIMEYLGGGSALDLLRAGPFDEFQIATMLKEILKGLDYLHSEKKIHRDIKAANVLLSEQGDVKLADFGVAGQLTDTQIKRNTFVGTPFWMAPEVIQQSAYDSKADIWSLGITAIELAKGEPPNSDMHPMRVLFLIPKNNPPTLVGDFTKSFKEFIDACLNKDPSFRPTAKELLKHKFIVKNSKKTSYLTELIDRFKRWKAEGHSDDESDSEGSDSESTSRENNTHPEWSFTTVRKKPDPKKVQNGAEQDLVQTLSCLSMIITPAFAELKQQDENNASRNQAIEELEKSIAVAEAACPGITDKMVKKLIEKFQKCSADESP
T1 sequence (Q13153 whole entry): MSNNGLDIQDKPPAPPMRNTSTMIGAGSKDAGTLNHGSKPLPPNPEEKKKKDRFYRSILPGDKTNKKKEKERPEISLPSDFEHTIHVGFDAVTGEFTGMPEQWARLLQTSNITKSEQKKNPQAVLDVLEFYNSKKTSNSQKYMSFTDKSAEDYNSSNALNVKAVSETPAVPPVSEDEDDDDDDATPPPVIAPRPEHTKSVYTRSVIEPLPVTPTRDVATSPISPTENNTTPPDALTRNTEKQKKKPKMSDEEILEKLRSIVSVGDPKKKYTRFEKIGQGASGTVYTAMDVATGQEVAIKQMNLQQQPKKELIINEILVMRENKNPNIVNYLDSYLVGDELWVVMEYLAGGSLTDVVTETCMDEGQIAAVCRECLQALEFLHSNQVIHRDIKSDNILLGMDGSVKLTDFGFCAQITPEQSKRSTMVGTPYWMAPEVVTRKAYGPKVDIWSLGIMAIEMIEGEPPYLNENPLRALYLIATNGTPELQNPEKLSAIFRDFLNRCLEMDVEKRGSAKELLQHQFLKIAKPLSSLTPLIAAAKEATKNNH
T8 sequence (Q86Y07 whole entry): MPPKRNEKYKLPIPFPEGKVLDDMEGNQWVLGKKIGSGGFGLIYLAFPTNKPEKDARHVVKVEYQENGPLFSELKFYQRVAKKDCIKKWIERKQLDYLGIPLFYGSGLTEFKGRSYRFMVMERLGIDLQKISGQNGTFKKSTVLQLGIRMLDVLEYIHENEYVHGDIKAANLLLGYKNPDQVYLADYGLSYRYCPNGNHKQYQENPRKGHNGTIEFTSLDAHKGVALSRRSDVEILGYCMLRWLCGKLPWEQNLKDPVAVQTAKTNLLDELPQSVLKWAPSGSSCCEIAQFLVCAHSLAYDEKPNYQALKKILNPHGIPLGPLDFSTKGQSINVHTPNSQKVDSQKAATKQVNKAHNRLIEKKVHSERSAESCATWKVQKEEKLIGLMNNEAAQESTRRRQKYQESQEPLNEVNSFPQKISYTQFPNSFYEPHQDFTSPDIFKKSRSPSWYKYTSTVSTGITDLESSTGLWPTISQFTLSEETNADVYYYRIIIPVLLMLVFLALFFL

On to `COc1ncc(-c2ccc3nccc(-c4ccnnc4)c3c2)cc1NS(=O)(=O)c1ccc(F)cc1F` [Omipalisib], for which the remaining activity at 1 µM in assay [1] worked out at 55%; in assay [2] it was 100%; in [3] it was 100%; in [4] (CDK4-cyclinD1), 100%; in assay [4] (CDK4-cyclinD3), 100%; in assay [5], 100%. Moreover, the remaining activity at 1 µM in assay [6] amounted to 100%; in [7], 43%; in assay [8] it was 100%; in assay [9] it was 91%; in assay [10], 82%; in [11], 100%.
In the case of `Cn1c(=O)n(-c2ccc(C(C)(C)C#N)cc2)c2c3cc(-c4cnc5ccccc5c4)ccc3ncc21` [Dactolisib, 2-methyl-2-[4-(3-methyl-2-oxo-8-quinolin-3-yl-2,3-dihydroimidazo[4,5-c]quinolin-1-yl)-phenyl] propionitrile], the remaining activity at 1 µM in assay [1] is 100%; in [2], 100%; in assay [3], 88%; in assay [4] (CDK4-cyclinD1) it was 100%; in assay [4] (CDK4-cyclinD3) it was 97%; in [5], 64%. Moreover, the remaining activity at 1 µM came out at 98% in assay [6]; 100% in [7]; 83% in [8]; 76% in assay [9]; 100% in [10]; 98% in assay [11].
In the case of `Nc1cc(C(F)(F)F)c(-c2cc(N3CCOCC3)nc(N3CCOCC3)n2)cn1` [Buparlisib], the remaining activity at 1 µM in assay [1] amounted to 100%; in assay [2] it was 91%; in assay [3], 100%; in assay [4] (CDK4-cyclinD1), 82%; in assay [4] (CDK4-cyclinD3), 91%; in assay [5], 92%. In addition, the remaining activity at 1 µM worked out at 87% in [6]; 100% in assay [7]; 83% in assay [8]; 100% in assay [9]; 100% in assay [10]; 97% in assay [11]. For the same molecule, the remaining activity at 10 µM in [1] (setting [12]) amounted to 96%; in [2] (10 µM, read-out: SgK110 (% of control at 10 µM)) it was 100%; in assay [3] (10 µM, read-out: SRPK1 (% of control at 10 µM)) it was 100%; in assay [4] (CDK4-cyclinD1), 100%; in assay [4] (CDK4-cyclinD3) it was 100%; in [5] (setting [12]) it was 100%. For the same molecule, the remaining activity at 10 µM in [6] (10 µM, read-out: TAOK2 (% of control at 10 µM)) was 84%; in [7] (setting [12]), 100%; in [8] (10 µM, read-out: VRK2 (% of control at 10 µM)) it was 100%; in assay [9] (setting [12]) it was 74%; in [10] (setting [12]) it was 100%; in assay [11] (10 µM, read-out: TSSK1B (% of control at 10 µM)), 100%.
Take `FC(F)c1nc2ccccc2n1-c1nc(N2CCOCC2)nc(N2CCOCC2)n1` [ZSTK474, 2-(difluoromethyl)-1-[4,6-di(4-morpholinyl)-1,3,5-triazin-2-yl]-1H-benzimidazole]: the remaining activity at 1 µM came out at 100% in assay [1]; 100% in assay [2]; 67% in assay [3]; 90% in assay [4] (CDK4-cyclinD1); 100% in [4] (CDK4-cyclinD3); 93% in assay [5]. Moreover, the remaining activity at 1 µM in assay [6] was determined as 81%; in assay [7] it was 92%; in assay [8], 100%; in assay [9], 68%; in [10], 100%; in [11], 76%.
